Measurements published in article PMC9224473 (International Journal of Molecular Sciences, 2022).
≈ marks a conversion by molar mass, not a printed value.

Assays:
S. aureus T 5591 = experiment: MIC, broth microdilution, clinical strain; assay type: cell-based, Staphylococcus aureus; details: Staphylococcus aureus, T5591, 19 h, 35 °C
E. coli 520 = experiment: MIC, broth microdilution, clinical strain; assay type: cell-based, Escherichia coli; details: Escherichia coli, 520, 19 h, 35 °C
P. aeruginosa 659 = experiment: MIC, broth microdilution, clinical strain; assay type: cell-based, Pseudomonas aeruginosa; details: Pseudomonas aeruginosa, 659, read-out: MIC P. aeruginosa 659, 19 h, 35 °C
S. aureus ATCC 29213 = experiment: MIC, broth microdilution, standard strain; assay type: cell-based, Staphylococcus aureus; details: Staphylococcus aureus, ATCC29213, 19 h, 35 °C
S. epidermidis KR 4243 = experiment: MIC, broth microdilution, clinical strain; assay type: cell-based, Staphylococcus epidermidis; details: Staphylococcus epidermidis, KR4243, 19 h, 35 °C
[1] = system: S. epidermidis ATCC 35984; experiment: MIC, broth microdilution, standard strain; assay type: cell-based, Staphylococcus epidermidis; details: Staphylococcus epidermidis, ATCC35984, 19 h, 35 °C
E. coli ATCC 25922 = experiment: MIC, broth microdilution, standard strain; assay type: cell-based, Escherichia coli; details: 35 °C; for MIC: Escherichia coli, ATCC25922, 19 h
S. pasteuri KR 4358 = experiment: MIC, broth microdilution, clinical strain; assay type: cell-based, Staphylococcus pasteuri; details: Staphylococcus pasteuri, KR4358, 19 h, 35 °C
E. coli 510 = experiment: MIC, broth microdilution, clinical strain; assay type: cell-based, Escherichia coli; details: Escherichia coli, 510, 19 h, 35 °C
E. coli 600 = experiment: MIC, broth microdilution, clinical strain; assay type: cell-based, Escherichia coli; details: Escherichia coli, 600, 19 h, 35 °C
S. aureus ATCC 25923 = experiment: MIC, broth microdilution, standard strain; assay type: cell-based, Staphylococcus aureus; details: Staphylococcus aureus, ATCC25923, 19 h, 35 °C
S. aureus ATCC 6538 = experiment: MIC, broth microdilution, standard strain; assay type: cell-based, Staphylococcus aureus; details: Staphylococcus aureus, ATCC6538, 19 h, 35 °C
S. aureus NCTC 4163 = experiment: MIC, broth microdilution, standard strain; assay type: cell-based, Staphylococcus aureus; details: Staphylococcus aureus, NCTC4163, 19 h, 35 °C
S. aureus T 5595 = experiment: MIC, broth microdilution, clinical strain; assay type: cell-based, Staphylococcus aureus; details: Staphylococcus aureus, T5595, 19 h, 35 °C
[2] = system: S. epidermidis ATCC 12228; experiment: MIC, broth microdilution, standard strain; assay type: cell-based, Staphylococcus epidermidis; details: Staphylococcus epidermidis, ATCC12228, 19 h, 35 °C
P. aeruginosa ATCC 15442 = experiment: MIC, broth microdilution, standard strain; assay type: cell-based, Pseudomonas aeruginosa; details: Pseudomonas aeruginosa, ATCC15442, 19 h, 35 °C
[3] = system: SW620 (human metastatic colon cancer); experiment: MTT cytotoxicity assay; assay type: cell-based; details: Homo sapiens, SW-620, 72 h, mean SD
Protocol: (§1) The human cell lines SW480 (primary colon cancer), SW620 (lymph node metastatic colon cancer from the same patient as primary cancer cells), HCT116 (colon carcinoma), HepG2 (liver cancer), and HaCaT (immortalized keratinocytes) were obtained from the American Type Culture Collection (ATCC, Rockville, MD, USA). The SW480, SW620 and HCT116 cells were grown in MEM (ThermoSci, Waltham, MA, USA), HepG2 and HaCaT in DMEM High Glucose (Biowest SAS, Nuaillé, France) supplemented with 10% foetal bovine serum (FBS), HEPES (20 mM), and antibiotics (100 U mL^−1 of Penicillin and 100 μg mL^−1 of Streptomycin). The cells were incubated in a humidified incubator at 37 °C/5% CO2, until 80–90% confluence was reached.
The cell viability was assessed by using of MTT salt [3-(4,5-dimethylthiazol-2-yl)-2,5-diphenyltetrazolium bromide] converted by mitochondrial dehydrogenase, occurring in living cells. […] The untreated cells were used as the control.
(§2) Subsequently, the medium was removed and dimethyl sulfoxide (DMSO) with isopropanol (1:1) was added to dissolve the formazan crystals. The optical density was measured using UVM 340 reader (ASYS Hitech GmbH, Eugendorf, Austria) at a wavelength of 570 nm. The experiments were repeated three times. The cell viability was calculated as the percent of MTT reduced in treated cells versus control cells (untreated cells). The number of viable cells cultured without tested compounds was assumed as 100%. A decreased relative MTT level indicates decreased cell viability. The IC50 values were estimated using CompuSyn version 1.0.

[4] = system: HaCaT (human immortal keratinocyte cell line); experiment: MTT cytotoxicity assay; assay type: cell-based; details: Homo sapiens, HaCaT, 72 h, mean SD, read-out: IC50 HaCaT (normal cells)
Protocol: as §1
(§3) The cell viability was assessed by using of MTT salt [3-(4,5-dimethylthiazol-2-yl)-2,5-diphenyltetrazolium bromide] converted by mitochondrial dehydrogenase, occurring in living cells. The cells were seeded in 96-well plates at a density of 1 × 10^4 cells per well and allowed to adhere for 24 h at 37 °C in a CO2 humidified incubator. […]. The untreated cells were used as the control.
as §2, with “After 72 h incubation, the medium was replaced with 200 µL per well of free-serum medium containing 0.5 mg mL^−1 MTT and incubated for 4 h at 37 °C in a CO2 humidified incubator. Subsequently,” for “Subsequently,”

[5] = system: SW480 (human primary colon cancer); experiment: MTT cytotoxicity assay; assay type: cell-based; details: Homo sapiens, SW480, 72 h, mean SD
Protocol: as §1, §3
as §2, with “After 72 h incubation, the medium was replaced with 200 µL per well of free-serum medium containing 0.5 mg mL^−1 MTT and incubated for 4 h at 37 °C in a CO2 humidified incubator. Subsequently,” for “Subsequently,”

[6] = system: HCT116 (human colon cancer); experiment: MTT cytotoxicity assay; assay type: cell-based; details: Homo sapiens, HCT-116, 72 h, mean SD
Protocol: as §1, §3
as §2, with “After 72 h incubation, the medium was replaced with 200 µL per well of free-serum medium containing 0.5 mg mL^−1 MTT and incubated for 4 h at 37 °C in a CO2 humidified incubator. Subsequently,” for “Subsequently,”

[7] = system: HepG2 (human liver cancer); experiment: MTT cytotoxicity assay; assay type: cell-based; details: Homo sapiens, HepG2, 72 h, mean SD
Protocol: as §1, §3
as §2, with “After 72 h incubation, the medium was replaced with 200 µL per well of free-serum medium containing 0.5 mg mL^−1 MTT and incubated for 4 h at 37 °C in a CO2 humidified incubator. Subsequently,” for “Subsequently,”

[8] = system: standard Gram-positive Staphylococci; experiment: MIC, panel of standard Gram-positive strains; assay type: cell-based, Staphylococcus; details: range over all standard Gram-positive Staphylococci
[9] = system: standard bacteria strains; experiment: Antimicrobial screening (MIC), standard bacteria strains; assay type: cell-based; details: MIC evaluation
Protocol: Obtained compounds were examined for antimicrobial potency. Firstly, all of them were screened for their minimal inhibitory concentrations (MICs). A suitable set of bacteria was used, including representative standard Gram-positive and Gram-negative rods (Table 2 and Table 3). For clarity, results are presented for menthol and thymol derivatives separately.
The antimicrobial assays were conducted using reference strains of bacteria derived from international microbe collections: American Type Culture Collection (ATCC) and National Collection of Type Culture (NCTC). The following standard strains of bacteria were used: Gram-positive—Staphylococcus aureus NCTC 4163, Staphylococcus aureus ATCC 25923, Staphylococcus aureus ATCC 6538, Staphylococcus aureus ATCC 29213, Staphylococcus epidermidis ATCC 12228, Staphylococcus epidermidis ATCC 35984, Gram-negative: Escherichia coli ATCC 25922, Pseudomonas aeruginosa ATCC 15442. […] Antimicrobial activity was examined by the Minimal Inhibitory Concentration (MIC) method under standard procedures provided by CLSI with some modifications. MIC was determined by the two-fold serial broth microdilution method in 96-well microtitration plates using Mueller–Hinton II broth medium (Becton Dickinson, Franklin Lakes, NJ, USA). The final inoculum of all studied bacteria was 10^6 CFU/mL (colony forming unit per millilitre). The stock solution of tested compounds was prepared in dimethyl sulfoxide (DMSO) and diluted to a maximum of 1% of solvent content with a sterile medium.

Structure (SMILES) | MIC (S. aureus T 5591) [µg/mL] | MIC (E. coli 520) [µg/mL] | MIC (P. aeruginosa 659) [µg/mL] | MIC (S. aureus ATCC 29213) [µg/mL] | MIC (S. epidermidis KR 4243) [µg/mL] | MIC [1] [µg/mL] | MIC (E. coli ATCC 25922) [µg/mL] | MIC (S. pasteuri KR 4358) [µg/mL] | MIC (E. coli 510) [µg/mL] | MIC (E. coli 600) [µg/mL] | MIC (S. aureus ATCC 25923) [µg/mL] | MIC (S. aureus ATCC 6538) [µg/mL] | MIC (S. aureus NCTC 4163) [µg/mL] | MIC [2] [µg/mL] | MIC (P. aeruginosa ATCC 15442) [µg/mL] | IC50 [3] [µM] | IC50 [4] [µM] | IC50 [5] [µM] | IC50 [6] [µM] | IC50 [7] [µM] | other results
CC(C)[C@@H]1CC[C@@H](C)C[C@H]1OC(=O)CCCCCN1CCN(c2cc3c(cc2F)c(=O)c(C(=O)O)cn3C2CC2)CC1 [Compound 6, 1-cyclopropyl-6-fluoro-7-{4-[6-((1R,2S,5R)-2-isopropyl-5-methylcyclohexyloxy)-6-oxohexyl]piperazin-1-yl}-4-oxo-1,4-dihydroquinoline-3-carboxylic acid] | 8 (≈ 13.7 µM) | 64 (≈ 110 µM) | > 256 | 8 (≈ 13.7 µM) | 8 (≈ 13.7 µM) | 8 (≈ 13.7 µM) | 32 (≈ 54.8 µM) | 8 (≈ 13.7 µM) | > 256 | 64 (≈ 110 µM) | 8 (≈ 13.7 µM) | 4 (≈ 6.85 µM) | 4 (≈ 6.85 µM) | 8 (≈ 13.7 µM) | 256 (≈ 439 µM) | 38.1 ± 2.5 | > 100 | 46.2 ± 1.8 | 29.5 ± 2.1 | 53.7 ± 0.9 | melting point: 210.8 to 212.4 °C; MIC (S. aureus T 5595): 8 µg/mL (≈ 13.7 µM)
Cc1ccc(C(C)C)c(OC(=O)CCCN2CCN(c3cc4c(cc3F)c(=O)c(C(=O)O)cn4C3CC3)CC2)c1 [Compound 12, 1-cyclopropyl-6-fluoro-7-{4-[4-(2-isopropyl-5-methylphenoxy)-4-oxobutyl]piperazin-1-yl}-4-oxo-1,4-dihydroquinoline-3-carboxylic acid] | 1 (≈ 1.82 µM) | 8 (≈ 14.6 µM) | 64 (≈ 116 µM) | 0.8 (≈ 1.46 µM) | 2 (≈ 3.64 µM) | 0.8 (≈ 1.46 µM) | 2 to 4 (≈ 3.64 to 7.28 µM) | 1 (≈ 1.82 µM) | 128 (≈ 233 µM) | 4 (≈ 7.28 µM) | 0.8 (≈ 1.46 µM) | 1.6 (≈ 2.91 µM) | 1.6 (≈ 2.91 µM) | 0.8 (≈ 1.46 µM) | 12.8 (≈ 23.3 µM) | 61.8 ± 0.1 | 59.1 ± 3.1 | 33.7 ± 3.5 | 28.6 ± 0.1 | 43.4 ± 3.1 | MIC range against standard Gram-positive strains [8]: 0.8 to 1.6 µg/mL; MIC E. coli ATCC 25922 (E. coli ATCC 25922; 19 h): 3.2 µg/mL (≈ 5.82 µM); MIC (S. aureus T 5595): 4 µg/mL (≈ 7.28 µM)
CC(C)[C@@H]1CC[C@@H](C)C[C@H]1OC(=O)CCCCCOC(=O)c1cn(C2CC2)c2cc(N3CCN(CCCCCC(=O)O[C@@H]4C[C@H](C)CC[C@H]4C(C)C)CC3)c(F)cc2c1=O [Compound 8, 6-((1R,2S,5R)-2-isopropyl-5-methylcyclohexyloxy)-6-oxohexyl-1-cyclopropyl-6-fluoro-7-{4-[6-((1R,2S,5R)-2-isopropyl-5-methylcyclohexyloxy)-6-oxohexyl]piperazin-1-yl}-4-oxo-1,4-dihydroquinoline-3-carboxylate] |  |  |  | > 256 |  | > 256 | > 256 |  |  |  | > 256 | > 256 | > 256 | > 256 | > 256 | 48.7 ± 2.8 | 33.4 ± 3.8 | 78.2 ± 5.8 | 31.6 ± 7.4 | 30.2 ± 1.9 | Antimicrobial activity (in words) [9]: rather inactive
CC(C)[C@@H]1CC[C@@H](C)C[C@H]1OC(=O)CCCCOC(=O)c1cn(C2CC2)c2cc(N3CCN(CCCCC(=O)O[C@@H]4C[C@H](C)CC[C@H]4C(C)C)CC3)c(F)cc2c1=O [Compound 7, 5-((1R,2S,5R)-2-isopropyl-5-methylcyclohexyloxy)-5-oxopentyl-1-cyclopropyl-6-fluoro-7-{4-[5-((1R,2S,5R)-2-isopropyl-5-methylcyclohexyloxy)-5-oxopentyl]piperazin-1-yl}-4-oxo-1,4-dihydroquinoline-3-carboxylate] |  |  |  | > 256 |  | > 256 | > 256 |  |  |  | > 256 | > 256 | > 256 | > 256 | > 256 | 54.1 ± 0.5 | 25.6 ± 1.2 | 45.5 ± 5.5 | 49.3 ± 6.5 | 32.8 ± 3.1 | Antimicrobial activity (in words) [9]: rather inactive
